Reference: US20070049564A1 (Wyeth, priority 2005, published 2007)
Values after ≈ are worked out from the molar mass of the structure shown. Like-named read-outs stand apart in the source and are kept apart here.

What was measured:
[1] = system: E. coli GC 6465; test: MIC, broth microdilution; details: Escherichia coli, GC6465, E. coli GC 6465
Protocol: (§1) Antimicrobial susceptibility testing. The in vitro activities of the antibiotics are determined by the broth microdilution method as recommended by the National Committee for Clinical Laboratory Standards (NCCLS) (1). Mueller-Hinton II broth (MHBII)(BBL Cockeysville, Md.) is the medium employed in the testing procedures. Microtiter plates containing serial dilutions of each antimicrobial agent are inoculated with each organism to yield the appropriate density (10^5 CFU/ml) in a 100 μl final volume. The plates are incubated for 18-22 hours at 35° C. in ambient air.
Representative compounds were first incubated in mouse serum for an hour prior to the in vitro testing against a panel of selected gram-positive and gram-negative bacteria strains. All compounds were also pre-incubated in water for an hour prior to testing as control.

[2] = system: S. aureus GC 1079; test: MIC, broth microdilution; details: Staphylococcus aureus, GC1079, S. aureus GC 1079
Protocol: as §1
Representative compounds were first incubated in mouse serum for an hour prior to the in vitro testing against a panel of selected gram-positive and gram-negative bacteria strains. All compounds were also pre-incubated in water for an hour prior to testing as control. Representative compounds of Formula I were incubated in human serum prior to MIC determination.

[3] = system: E. faecalis GC 2265; test: MIC, broth microdilution; details: Enterococcus faecalis, GC2265, E. faecalis GC 2265
[4] = system: S. epidermidis GC 4935; test: MIC, broth microdilution; details: Staphylococcus epidermidis, GC4935, S. epidermidis GC 4935
[5] = system: E. coli GC 2272; test: MIC, broth microdilution; details: Escherichia coli, GC2272, E. coli GC 2272
[6] = system: S. pyogenes GC 4563; test: MIC, broth microdilution; details: Streptococcus pyogenes, GC4563, S. pyogenes GC 4563
[7] = system: S. aureus GC 1131; test: MIC, broth microdilution; details: Staphylococcus aureus, GC1131, S. aureus GC 1131
[8] = system: E. faecium GC 2243; test: MIC, broth microdilution; details: Enterococcus faecium, GC2243, E. faecium GC 2243
[9] = system: S. pneumoniae+ GC 4465; test: MIC, broth microdilution; details: Streptococcus pneumoniae, S. pneumoniae+ GC 4465
[10] = system: S. aureus GC 6469; test: MIC, broth microdilution; details: Staphylococcus aureus, GC6469, S. aureus GC 6469
[11] = system: S. aureus GC 6466; test: MIC, broth microdilution; details: Staphylococcus aureus, GC6466, S. aureus GC 6466
[12] = system: E. coli GC 1073; test: MIC, broth microdilution; details: Escherichia coli, GC1073, E. coli GC 1073
[13] = system: S. aureus GC 4536; test: MIC, broth microdilution; details: Staphylococcus aureus, GC4536, S. aureus GC 4536
[14] = system: E. coli GC 2233; test: MIC, broth microdilution; details: Escherichia coli, GC2233, E. coli GC 2233
[15] = system: E. coli GC 2234; test: MIC, broth microdilution; details: Escherichia coli, GC2234, E. coli GC 2234
[16] = system: E. coli; test: Range of MIC for E. coli strains; details: Escherichia coli
[17] = system: E. coli GC 2236; test: MIC, broth microdilution; details: Escherichia coli, GC2236, E. coli GC 2236
[18] = system: Staph.; test: Range of MIC for Staph. strains, including MRSA; details: Staphylococcus aureus, MRSA
[19] = system: c. albicans GC 3066; test: MIC, broth microdilution
[20] = system: E. faecalis GC 4555; test: MIC, broth microdilution; details: Enterococcus faecalis, GC4555, E. faecalis GC 4555
[21] = 20 h, read-out: Range of MIC, E. coli (Mouse Serum)
[22] = read-out: Range of MIC, E. coli (mouse serum)
[23] = read-out: Range of MIC, Staph (Mouse Serum)
[24] = read-out: Range of MIC, Staph (Water)
[25] = read-out: Range of MIC, Staph. (mouse serum)
[26] = read-out: Range of MIC, Staph. (water)
[27] = c. albicans GC 3066, Water pre-incubation

For CCCN(CC(=O)Nc1cc(N(C)C)c2c(c1O)C(=O)C1=C(O)[C@]3(O)C(=O)C(C(N)=O)=C(O)[C@@H](N(C)C)[C@@H]3C[C@@H]1C2)C(=O)OCOC(=O)C(C)C [Example 10, ({[(2-{[(5aR,6aS,7S,10aS)-9-(aminocarbonyl)-4,7-bis(dimethylamino)-1,8,10a,11-tetrahydroxy-10,12-dioxo-5,5a,6,6a,7,10,10a,12-octahydrotetracen-2-yl]amino}-2-oxoethyl)(propyl)amino]carbonyl}oxy)methyl 2-methylpropanoate], the MIC ([1]; Mouse Serum pre-incubation) was 8 µg/mL (≈ 11.2 µM), the MIC ([1]; Water pre-incubation) was over 64 µg/mL and the MIC ([2]; Mouse Serum pre-incubation) was 0.5 µg/mL (≈ 0.699 µM). For the same compound, the MIC ([2]; Water pre-incubation) was 1 µg/mL (≈ 1.4 µM), the MIC ([3]; Mouse Serum pre-incubation) was 1 µg/mL (≈ 1.4 µM) and the MIC ([3]; Water pre-incubation) was 1 µg/mL (≈ 1.4 µM). It also gave an MIC ([4]; Mouse Serum pre-incubation) of 0.5 µg/mL (≈ 0.699 µM), an MIC ([4]; Water pre-incubation) of 1 µg/mL (≈ 1.4 µM) and an MIC ([5]; Mouse Serum pre-incubation) of 0.5 µg/mL (≈ 0.699 µM). The MIC ([5]; Water pre-incubation) was 8 µg/mL (≈ 11.2 µM), the MIC ([6]; Mouse Serum pre-incubation) was under 0.06 µg/mL and the MIC ([6]; Water pre-incubation) was under 0.06 µg/mL. It also gave an MIC ([7]; Mouse Serum pre-incubation) of 0.12 µg/mL (≈ 0.168 µM), an MIC ([7]; Water pre-incubation) of 0.12 µg/mL (≈ 0.168 µM) and an MIC ([8]; Mouse Serum pre-incubation) of under 0.06 µg/mL. It also gave an MIC ([8]; Water pre-incubation) of 0.12 µg/mL (≈ 0.168 µM), an MIC ([9]; Mouse Serum pre-incubation) of 1 µg/mL (≈ 1.4 µM) and an MIC ([9]; Water pre-incubation) of 1 µg/mL (≈ 1.4 µM). The MIC ([10]; Mouse Serum pre-incubation) was 1 µg/mL (≈ 1.4 µM), the MIC ([10]; Water pre-incubation) was 2 µg/mL (≈ 2.79 µM) and the MIC ([11]; Mouse Serum pre-incubation) was 0.12 µg/mL (≈ 0.168 µM). For the same compound, the MIC ([11]; Water pre-incubation) was 0.12 µg/mL (≈ 0.168 µM), the MIC ([12]; Mouse Serum pre-incubation) was 0.5 µg/mL (≈ 0.699 µM) and the MIC ([12]; Water pre-incubation) was 16 µg/mL (≈ 22.4 µM). The MIC ([13]; Mouse Serum pre-incubation) was 0.25 µg/mL (≈ 0.349 µM), the MIC ([13]; Water pre-incubation) was 0.5 µg/mL (≈ 0.699 µM) and the MIC ([14]; Mouse Serum pre-incubation) was 0.5 µg/mL (≈ 0.699 µM). The MIC ([14]; Water pre-incubation) was 8 µg/mL (≈ 11.2 µM), the MIC ([15]; Mouse Serum pre-incubation) was 0.5 µg/mL (≈ 0.699 µM) and the MIC ([15]; Water pre-incubation) was 8 µg/mL (≈ 11.2 µM). The MIC [16, 21] was 0.25 to 2 µg/mL (≈ 0.349 to 2.79 µM), the MIC ([16]; read-out: Range of MIC, E. coli (Water)) was 4 to 32 µg/mL (≈ 5.59 to 44.7 µM) and the MIC [16, 22] was 0.25 to 2 µg/mL (≈ 0.349 to 2.79 µM). It also gave an MIC ([16]; read-out: Range of MIC, E. coli (water)) of 4 to 32 µg/mL (≈ 5.59 to 44.7 µM), an MIC ([17]; Mouse Serum pre-incubation) of 0.5 µg/mL (≈ 0.699 µM) and an MIC ([17]; Water pre-incubation) of 8 µg/mL (≈ 11.2 µM). For the same compound, the MIC [18, 23] was 0.25 to 2 µg/mL (≈ 0.349 to 2.79 µM), the MIC [18, 24] was 0.12 to 2 µg/mL (≈ 0.168 to 2.79 µM) and the MIC [18, 25] was 0.25 to 2 µg/mL (≈ 0.349 to 2.79 µM). It also gave an MIC [18, 26] of 0.12 to 2 µg/mL (≈ 0.168 to 2.79 µM), an MIC ([19]; Candida albicans, GC3066) of over 64 µg/mL and an MIC [19, 27] of over 64 UG/ML. The MIC ([20]; Mouse Serum pre-incubation) was 0.5 µg/mL (≈ 0.699 µM) and the MIC ([20]; Water pre-incubation) was 1 µg/mL (≈ 1.4 µM).

For CCCN(CC(=O)Nc1cc(N(C)C)c2c(c1O)C(=O)C1=C(O)[C@]3(O)C(=O)C(C(N)=O)=C(O)[C@@H](N(C)C)[C@@H]3C[C@@H]1C2)C(=O)OCOC(=O)Cc1ccccc1 [Example 11, ({[(2-{[(5aR,6aS,7S,10aS)-9-(aminocarbonyl)-4,7-bis(dimethylamino)-1,8,10a,11′-tetrahydroxy-10,12-dioxo-5,5a,6,6a,7,10,10a,12-octahydrotetracen-2-yl]amino}-2-oxoethyl)(propyl)amino]carbonyl}oxy)methyl phenylacetate], the MIC ([1]; Mouse Serum pre-incubation) was 8 µg/mL (≈ 10.5 µM), the MIC ([1]; Water pre-incubation) was over 64 µg/mL and the MIC ([2]; Mouse Serum pre-incubation) was 2 µg/mL (≈ 2.62 µM). The MIC ([2]; Water pre-incubation) was 4 µg/mL (≈ 5.24 µM), the MIC ([3]; Mouse Serum pre-incubation) was 2 µg/mL (≈ 2.62 µM) and the MIC ([3]; Water pre-incubation) was 4 µg/mL (≈ 5.24 µM). The MIC ([4]; Mouse Serum pre-incubation) was 1 µg/mL (≈ 1.31 µM), the MIC ([4]; Water pre-incubation) was 2 µg/mL (≈ 2.62 µM) and the MIC ([5]; Mouse Serum pre-incubation) was 0.25 µg/mL (≈ 0.327 µM). For the same compound, the MIC ([5]; Water pre-incubation) was 4 µg/mL (≈ 5.24 µM), the MIC ([6]; Mouse Serum pre-incubation) was under 0.06 µg/mL and the MIC ([6]; Water pre-incubation) was under 0.06 µg/mL. It also gave an MIC ([7]; Mouse Serum pre-incubation) of 0.25 µg/mL (≈ 0.327 µM), an MIC ([7]; Water pre-incubation) of 0.25 µg/mL (≈ 0.327 µM) and an MIC ([8]; Mouse Serum pre-incubation) of 0.12 µg/mL (≈ 0.157 µM). The MIC ([8]; Water pre-incubation) was 0.25 µg/mL (≈ 0.327 µM), the MIC ([9]; Mouse Serum pre-incubation) was 2 µg/mL (≈ 2.62 µM) and the MIC ([9]; Water pre-incubation) was 2 µg/mL (≈ 2.62 µM). The MIC ([10]; Mouse Serum pre-incubation) was 4 µg/mL (≈ 5.24 µM), the MIC ([10]; Water pre-incubation) was 4 µg/mL (≈ 5.24 µM) and the MIC ([11]; Mouse Serum pre-incubation) was 0.25 µg/mL (≈ 0.327 µM). The MIC ([11]; Water pre-incubation) was 0.25 µg/mL (≈ 0.327 µM), the MIC ([12]; Mouse Serum pre-incubation) was 0.5 µg/mL (≈ 0.655 µM) and the MIC ([12]; Water pre-incubation) was 16 µg/mL (≈ 20.9 µM). The MIC ([13]; Mouse Serum pre-incubation) was 0.5 µg/mL (≈ 0.655 µM), the MIC ([13]; Water pre-incubation) was 0.5 µg/mL (≈ 0.655 µM) and the MIC ([14]; Mouse Serum pre-incubation) was 0.25 µg/mL (≈ 0.327 µM). The MIC ([14]; Water pre-incubation) was 8 µg/mL (≈ 10.5 µM), the MIC ([15]; Mouse Serum pre-incubation) was 0.5 µg/mL (≈ 0.655 µM) and the MIC ([15]; Water pre-incubation) was 16 µg/mL (≈ 20.9 µM). The MIC [16, 21] was 0.25 to 2 µg/mL (≈ 0.327 to 2.62 µM), the MIC [16, 22] was 0.25 to 2 µg/mL (≈ 0.327 to 2.62 µM) and the MIC ([17]; Mouse Serum pre-incubation) was 0.5 µg/mL (≈ 0.655 µM). The MIC ([17]; Water pre-incubation) was 8 µg/mL (≈ 10.5 µM), the MIC [18, 23] was 0.25 to 4 µg/mL (≈ 0.327 to 5.24 µM) and the MIC [18, 24] was 0.25 to 4 µg/mL (≈ 0.327 to 5.24 µM). The MIC [18, 25] was 0.25 to 4 µg/mL (≈ 0.327 to 5.24 µM), the MIC [18, 26] was 0.25 to 4 µg/mL (≈ 0.327 to 5.24 µM) and the MIC ([19]; Candida albicans, GC3066) was over 64 µg/mL. The MIC [19, 27] was over 64 UG/ML, the MIC ([20]; Mouse Serum pre-incubation) was 0.5 µg/mL (≈ 0.655 µM) and the MIC ([20]; Water pre-incubation) was 1 µg/mL (≈ 1.31 µM).
